The values below are quoted from earlier work in patent US20080247957A1, “Advanced drug delivery strategy and platform for minimally-invasive treatment of liver cancer” (Drexel University, priority 2007, published 2008).

The conditions of the data set: in the body.

Regarding `O=c1[nH]cc(F)c(=O)[nH]1` [5 fluorouracil], the half life result is on record as “less than 5 min”.
